According to ChEMBL document CHEMBL2040759, “Design, synthesis and anticancer activity of nitric oxide donating/chalcone hybrids” (2012):

How the values were obtained:
Assay type in all cases: functional
MCF7 = test: Growth inhibition of human MCF7 cells assessed as cell growth at 10^-5 M after 48 hrs by SRB assay; details: MCF7, 48 h, read-out: Activity
UO-31 = test: Growth inhibition of human UO31 cells assessed as cell growth at 10^-5 M after 48 hrs by SRB assay; details: UO-31, 48 h, read-out: Activity
SK-MEL-2 = test: Growth inhibition of human SK-MEL-2 cells assessed as cell growth at 10^-5 M after 48 hrs by SRB assay; details: SK-MEL-2, 48 h, read-out: Activity
NCI-H522 = test: Growth inhibition of human NCI-H522 cells assessed as cell growth at 10^-5 M after 48 hrs by SRB assay; details: NCI-H522, 48 h, read-out: Activity
Malme-3M = test: Growth inhibition of human MALME-3M cells assessed as cell growth at 10^-5 M after 48 hrs by SRB assay; details: read-out: Activity
CAKI-1 = test: Growth inhibition of human Caki1 cells assessed as cell growth at 10^-5 M after 48 hrs by SRB assay; details: CAKI-1, 48 h, read-out: Activity
NCI-H226 = test: Growth inhibition of human NCI-H226 cells assessed as cell growth at 10^-5 M after 48 hrs by SRB assay; details: NCI-H226, 48 h, read-out: Activity
A549 = test: Growth inhibition of human A549/ATCC cells assessed as cell growth at 10^-5 M after 48 hrs by SRB assay; details: A549, 48 h, read-out: Activity
OVCAR-4 = test: Growth inhibition of human OVCAR4 cells assessed as cell growth at 10^-5 M after 48 hrs by SRB assay; details: OVCAR-4, 48 h, read-out: Activity
IGROV-1 = test: Growth inhibition of human IGROV1 cells assessed as cell growth at 10^-5 M after 48 hrs by SRB assay; details: IGROV-1, 48 h, read-out: Activity
NCI-H322M = test: Growth inhibition of human NCI-H322M cells assessed as cell growth at 10^-5 M after 48 hrs by SRB assay; details: read-out: Activity
MDA-MB-231 = test: Growth inhibition of human MDA-MB-231 cells assessed as cell growth at 10^-5 M after 48 hrs by SRB assay; details: MDA-MB-231, 48 h, read-out: Activity
LOX IMVI = test: Growth inhibition of human LOXIMVI cells assessed as cell growth at 10^-5 M after 48 hrs by SRB assay; details: read-out: Activity
[1] = Growth inhibition of human NCI-ADR-RES cells assessed as cell growth at 10^-5 M after 48 hrs by SRB assay; details: read-out: Activity
[2] = Growth inhibition of human Hs 578T cells assessed as cell growth at 10^-5 M after 48 hrs by SRB assay; details: read-out: Activity
MDA-MB-468 = test: Growth inhibition of human MDA-MB-468 cells assessed as cell growth at 10^-5 M after 48 hrs by SRB assay; details: MDA-MB-468, 48 h, read-out: Activity
UACC-62 = test: Growth inhibition of human UACC62 cells assessed as cell growth at 10^-5 M after 48 hrs by SRB assay; details: UACC-62, 48 h, read-out: Activity
A498 = test: Growth inhibition of human A498 cells assessed as cell growth at 10^-5 M after 48 hrs by SRB assay; details: A498, 48 h, read-out: Activity
OVCAR-8 = test: Growth inhibition of human OVCAR8 cells assessed as cell growth at 10^-5 M after 48 hrs by SRB assay; details: OVCAR-8, 48 h, read-out: Activity
CCRF-CEM = test: Growth inhibition of human CCRF-CEM cells assessed as cell growth at 10^-5 M after 48 hrs by SRB assay; details: read-out: Activity
EKVX = test: Growth inhibition of human EKVX cells assessed as cell growth at 10^-5 M after 48 hrs by SRB assay; details: read-out: Activity
OVCAR-3 = test: Growth inhibition of human OVCAR3 cells assessed as cell growth at 10^-5 M after 48 hrs by SRB assay; details: OVCAR-3, 48 h, read-out: Activity
SNB-75 = test: Growth inhibition of human SNB75 cells assessed as cell growth at 10^-5 M after 48 hrs by SRB assay; details: SNB-75, 48 h, read-out: Activity
[3] = Growth inhibition of human […] cells assessed as cell growth at 10^-5 M after 48 hrs by SRB assay; details: RPMI18226, 48 h, read-out: Activity
M14 = test: Growth inhibition of human M14 cells assessed as cell growth at 10^-5 M after 48 hrs by SRB assay; details: M14, 48 h, read-out: Activity
NCI-H460 = test: Growth inhibition of human NCI-H460 cells assessed as cell growth at 10^-5 M after 48 hrs by SRB assay; details: NCI-H460, 48 h, read-out: Activity
UACC-257 = test: Growth inhibition of human UACC257 cells assessed as cell growth at 10^-5 M after 48 hrs by SRB assay; details: UACC-257, 48 h, read-out: Activity
HOP-92 = test: Growth inhibition of human HOP92 cells assessed as cell growth at 10^-5 M after 48 hrs by SRB assay; details: HOP-92, 48 h, read-out: Activity
DU-145 = test: Growth inhibition of human DU145 cells assessed as cell growth at 10^-5 M after 48 hrs by SRB assay; details: DU-145, 48 h, read-out: Activity
TK-10 = test: Growth inhibition of human TK10 cells assessed as cell growth at 10^-5 M after 48 hrs by SRB assay; details: TK-10, 48 h, read-out: Activity
786-0 = test: Growth inhibition of human 786-0 cells assessed as cell growth at 10^-5 M after 48 hrs by SRB assay; details: 786-0, 48 h, read-out: Activity
COLO 205 = test: Growth inhibition of human COLO205 cells assessed as cell growth at 10^-5 M after 48 hrs by SRB assay; details: COLO 205, 48 h, read-out: Activity
SW-620 = test: Growth inhibition of human SW620 cells assessed as cell growth at 10^-5 M after 48 hrs by SRB assay; details: SW-620, 48 h, read-out: Activity
BT-549 = test: Growth inhibition of human BT549 cells assessed as cell growth at 10^-5 M after 48 hrs by SRB assay; details: BT-549, 48 h, read-out: Activity
HCT-116 = test: Growth inhibition of human HCT116 cells assessed as cell growth at 10^-5 M after 48 hrs by SRB assay; details: HCT-116, 48 h, read-out: Activity
HCT-15 = test: Growth inhibition of human HCT15 cells assessed as cell growth at 10^-5 M after 48 hrs by SRB assay; details: HCT-15, 48 h, read-out: Activity

O=C(CO[N+](=O)[O-])Nc1ccc(C(=O)/C=C/c2ccc(Cl)cc2)cc1
growth at 10 µM (MCF7): 1.64%
growth at 10 µM (UO-31): 31.9%
growth at 10 µM (SK-MEL-2): 81.7%
growth at 10 µM (NCI-H522): 38.7%
growth at 10 µM (Malme-3M): 79.1%
growth at 10 µM (CAKI-1): 74.9%
growth at 10 µM (NCI-H226): 81.7%
growth at 10 µM (A549): 67.6%
growth at 10 µM (OVCAR-4): 76.1%
growth at 10 µM (IGROV-1): -26%
growth at 10 µM (NCI-H322M): 71.5%
growth at 10 µM (MDA-MB-231): 55%
growth at 10 µM (LOX IMVI): -60.9%
growth at 10 µM [1]: 29.9%
growth at 10 µM [2]: 89.7%
growth at 10 µM (MDA-MB-468): 48.7%
growth at 10 µM (UACC-62): 49.2%
growth at 10 µM (A498): 103%
growth at 10 µM (OVCAR-8): 27.2%
growth at 10 µM (CCRF-CEM): 20.1%
growth at 10 µM (EKVX): 67.9%
growth at 10 µM (OVCAR-3): 0.33%
growth at 10 µM (SNB-75): 69.7%
growth at 10 µM [3]: -14.2%
growth at 10 µM (M14): 3.46%
growth at 10 µM (NCI-H460): 84.9%
growth at 10 µM (UACC-257): 61.2%
growth at 10 µM (HOP-92): 66.8%
growth at 10 µM (DU-145): 79.9%
growth at 10 µM (TK-10): 45.7%
growth at 10 µM (786-0): 75%
growth at 10 µM (COLO 205): 36.1%
growth at 10 µM (SW-620): -61.8%
growth at 10 µM (BT-549): 18.9%
growth at 10 µM (HCT-116): -49.2%
growth at 10 µM (HCT-15): 58.9%

O=C(CO[N+](=O)[O-])Nc1ccc(C(=O)/C=C/c2ccc3c(c2)OCO3)cc1
growth at 10 µM (MCF7): 26.2%
growth at 10 µM (UO-31): 77.1%
growth at 10 µM (SK-MEL-2): 119%
growth at 10 µM (NCI-H522): 97.6%
growth at 10 µM (Malme-3M): 116%
growth at 10 µM (CAKI-1): 93%
growth at 10 µM (NCI-H226): 107%
growth at 10 µM (A549): 88.9%
growth at 10 µM (OVCAR-4): 96.1%
growth at 10 µM (IGROV-1): 46.3%
growth at 10 µM (NCI-H322M): 108%
growth at 10 µM (MDA-MB-231): 87.4%
growth at 10 µM (LOX IMVI): 21.5%
growth at 10 µM [1]: 84.5%
growth at 10 µM [2]: 103%
growth at 10 µM (MDA-MB-468): 91.9%
growth at 10 µM (UACC-62): 96%
growth at 10 µM (A498): 107%
growth at 10 µM (OVCAR-8): 75.8%
growth at 10 µM (CCRF-CEM): 70%
growth at 10 µM (EKVX): 99.7%
growth at 10 µM (OVCAR-3): 80.6%
growth at 10 µM (SNB-75): 86.3%
growth at 10 µM [3]: 46.8%
growth at 10 µM (M14): 81.8%
growth at 10 µM (NCI-H460): 108%
growth at 10 µM (UACC-257): 92.9%
growth at 10 µM (HOP-92): 77.3%
growth at 10 µM (DU-145): 96.7%
growth at 10 µM (TK-10): 111%
growth at 10 µM (786-0): 109%
growth at 10 µM (COLO 205): 113%
growth at 10 µM (SW-620): 47.8%
growth at 10 µM (BT-549): 87.6%
growth at 10 µM (HCT-116): -5.9%
growth at 10 µM (HCT-15): 76.7%
